{"source": "patent US9029092B2", "about": "“Solution phase homogeneous assays” (Beckman Coulter, Inc., priority 2009, dated 2015)", "key": {"PSA": {"system": "PSA", "assay": "Screening SSIA by homogeneous PSA immunoassay (anti-PSA-AK1 + anti-PSA-HRP)", "type": "biochemical, human", "procedure": "This example presents one method used for testing of candidate compounds for functionality as SSIA in assays of the present disclosure. Testing was conducted in a model screening immunoassay of the protein PSA. Tests were run using a 96-well microtiter plate format. A solution containing 30 μL of mouse anti-PSA-AK1 (66 ng), 30 μL of mouse anti-PSA-HRP conjugate (7.8 ng), 36 μL of human female serum, and 24 μL of PSA calibrator were pipetted into each well. The plate was incubated at 37° C. for 10 minutes. A 5 μL aliquot of the test compound (various concentrations) was added to each well. Chemiluminescence was triggered by the addition of 100 μL of a solution of a trigger solution whose composition is listed below. The chemiluminescent flash was integrated for 5 seconds after the addition of the trigger solution using a Luminoskan Asent® plate luminometer, (Thermo Fischer Scientific, Inc., Waltham, Mass.).\nIt is desirable that the improvement factor be at least 2 (S5/S0≧ about 20-30) and more desirable that improvement factor be at least 5 (S5/S0≧ about 50), yet more desirable that S5/S0 be ≧100 in the present screen."}, "TnI": {"system": "TnI", "assay": "Assays utilizing various SSIA in TnI assay", "type": "biochemical", "conditions": "for Signal/Noise S1/S0: calibrator S1; for Signal/Noise S2/S0: calibrator S2; for Signal/Noise S3/S0: calibrator S3; for Signal/Noise S4/S0: calibrator S4; for Signal/Noise S5/S0: calibrator S5; for Signal/Noise S6/S0: calibrator S6", "procedure": "In a reaction tube, 400 uL of TnI M6 antibody-HRP conjugate at 0.5 ug/mL in buffered aqueous solution at pH. 8.0 (100 mM Tris, 150 mM NaCl, 0.1 mM EDTA, 0.2% Tween-20 and 1% BSA), 400 uL of AK1˜Dex70/31˜Streptavidin (fraction 1) 2:1 SA/Ab at 2 ug/mL Ab also in buffered aqueous solution at pH 8.0, and 400 uL of calibrator standard solution containing the TnI analyte at a known concentration. One tube was prepared for each calibrator concentration. […] Next, 25 uL of each antioxidant as a concentrated solution of 2 mM, 1 mM or 0.5 mM was pipetted into the plate wells using a repeater pipette. The plates were rotated for 10 seconds to mix and incubated between 5 to 33 minutes. Detection was performed with a SpectraMax L injection plate luminometer."}, "[1]": {"conditions": "test compound final conc. 0.244 mM (244 uM)"}, "[2]": {"conditions": "test compound final conc. […] ([…]), S5 = 129 ng PSA/mL vs zero PSA"}, "[3]": {"conditions": "SSIA final concentration 6.25 uM"}, "[4]": {"conditions": "SSIA final concentration 12.5 uM"}}}
{"smiles": "Nc1cccc(Cl)c1O", "values": [{"measurement": "S5/S0", "setting": "PSA; [1]", "result": 300}]}
{"smiles": "Nc1c(O)ccc2ccccc12", "values": [{"measurement": "S5/S0", "setting": "PSA; [2]", "result": 63}]}
{"smiles": "O=c1cc(O)c2ccccc2o1", "values": [{"measurement": "S5/S0", "setting": "PSA; [2]", "result": 17}]}
{"smiles": "O=S([O-])[O-].[Na+].[Na+]", "note": "[Na2SO3]", "values": [{"measurement": "S5/S0", "setting": "PSA; test compound final conc. 15 uM", "result": 59}]}
{"smiles": "O=C1C=C(O)C(=O)C=C1O", "values": [{"measurement": "S5/S0", "setting": "PSA; [1]", "result": 14}]}
{"smiles": "Nc1cc(Cl)ccc1O", "values": [{"measurement": "S5/S0", "setting": "PSA; [1]", "result": 205}]}
{"smiles": "CC1(C)OC(=O)C(O)=C1O", "values": [{"measurement": "S5/S0", "setting": "PSA; [2]", "result": 467}]}
{"smiles": "c1ccc2c(c1)Nc1ccccc1O2", "note": "[phenoxazine]", "values": [{"measurement": "Signal/Noise S1/S0", "setting": "TnI; [3]", "result": 1.5}, {"measurement": "Signal/Noise S1/S0", "setting": "TnI; [4]", "result": 1.5}, {"measurement": "Signal/Noise S1/S0", "setting": "TnI; SSIA final concentration 25 uM", "result": 1.3}, {"measurement": "Signal/Noise S2/S0", "setting": "TnI; [3]", "result": 3.1}, {"measurement": "Signal/Noise S2/S0", "setting": "TnI; [4]", "result": 2.3}, {"measurement": "Signal/Noise S2/S0", "setting": "TnI; SSIA final concentration 25 uM", "result": 1.6}, {"measurement": "Signal/Noise S3/S0", "setting": "TnI; [3]", "result": 8.4}, {"measurement": "Signal/Noise S3/S0", "setting": "TnI; [4]", "result": 6.4}, {"measurement": "Signal/Noise S3/S0", "setting": "TnI; SSIA final concentration 25 uM", "result": 3.7}, {"measurement": "Signal/Noise S4/S0", "setting": "TnI; [3]", "result": 32.1}, {"measurement": "Signal/Noise S4/S0", "setting": "TnI; [4]", "result": 24.5}, {"measurement": "Signal/Noise S4/S0", "setting": "TnI; SSIA final concentration 25 uM", "result": 12.1}, {"measurement": "Signal/Noise S5/S0", "setting": "TnI; [3]", "result": 227.2}, {"measurement": "Signal/Noise S5/S0", "setting": "TnI; [4]", "result": 147.2}, {"measurement": "Signal/Noise S5/S0", "setting": "TnI; SSIA final concentration 25 uM", "result": 62.8}, {"measurement": "Signal/Noise S6/S0", "setting": "TnI; [3]", "result": 2049.8}, {"measurement": "Signal/Noise S6/S0", "setting": "TnI; [4]", "result": 1116.9}, {"measurement": "Signal/Noise S6/S0", "setting": "TnI; SSIA final concentration 25 uM", "result": 387.3}]}
{"smiles": "O=C(O)c1cccc(O)c1O", "values": [{"measurement": "S5/S0", "setting": "PSA; [2]", "result": 22}]}
